Assay results as given in article PMC11808136, “Screening and identification of host signaling pathways for alleviating influenza-induced production of pro-inflammatory cytokines, IP-10, IL-8, and MCP-1, using a U937 cell-based influenza model” (Frontiers in Microbiology, 2025).
Read-outs that look alike come from different tables or passages of the source.

Tests used:
[1] = test system: IL-8 production in influenza virus-infected U937 cells (H1N1); test: cells; type: cell-based, Human; settings: for EC50: read-out: EC50 IL-8
[2] = test system: IP-10 production in influenza virus-infected U937 cells (H1N1); test: cells; type: cell-based; settings: for EC50: read-out: EC50 IP-10
[3] = test system: MCP-1 production in influenza virus-infected U937 cells (H1N1); test: cells; type: cell-based; settings: for EC50: read-out: EC50 MCP-1; for IC50: read-out: IC50 MCP-1
[4] = test system: phosphorylation of p38 (p-p38); test: Western blot of phosphorylated p38 in influenza-infected U937 cells; type: cell-based, Human; settings: for phosphorylation of p38: 24 h post-infection, western blot, cellular model; for IC50: Homo sapiens, U-937, read-out: IC50 p-p38
Procedure: (§1) Figure 6 TKIs repress cytokine production by suppressing the p38 pathway. […] Cells were lysed 24 h post-infection, and the levels of phosphorylated p38 and ERK (p-p38 and p-ERK) and total p38 and ERK were assessed by western blot. A quantification of phosphorylated p38 levels for each drug treatment was included in the right panel of each figure.
(§2) Cells were homogenized in RIPA lysis buffer containing a 1% protease inhibitor cocktail (Roche) to extract total protein. Equal amounts of protein homogenates were separated by SDS-PAGE (Bio-Rad) and transferred onto polyvinylidene difluoride membranes (pore size […]; Bio-Rad). The membranes were then blotted with monoclonal antibodies against GAPDH (1:1000, ZSGB-BIO), p38, phosphor-p38, ERK, phospho-ERK, STAT1, phosphor-STAT1 (1:1000; Cell Signaling Technology), STAT3, and phosphor-STAT3 (1:1000; Cell Signaling Technology), respectively. Protein levels were detected with horseradish peroxidase-tagged secondary antibodies and enhanced chemiluminescence western blot reagents (Advansta), followed by visualization using an enhanced chemiluminescence system (AlphaEase FluorChem System, Alpha Innotech Corp.). Bands were quantified using ImageJ (Ver. 1.46; NIH, Bethesda, MD).

[5] = test system: STAT1 phosphorylation (p-STAT1); type: cell-based, Human
[6] = test system: ERK phosphorylation (p-ERK); test: Western blot of phosphorylated ERK in influenza-infected U937 cells; type: cell-based, Human; settings: 24 h post-infection, western blot
Procedure: Figure 5 Raf/MEK/ERK and p38 signal pathways are involved in the regulation of cytokines in U937 cells. (A–C) Determination of inhibition rates on IL-8, IP-10, and MCP-1 by each compound in the MAPK group and the distribution of targets between subgroups. U937 cells were infected with influenza A/PuertoRico/8/1934 virus (MOI = 0.1) in the presence of 10 μM of each inhibitor and then incubated at 37°C for 48 h. The distribution of the targets of all the inhibitors in the MAPK group was then analyzed and categorized into subgroups. […] The supernatants were harvested 48 h post-infection, and the levels of IL-8, MCP-1, and IP-10 were measured by AlphaLISA. (E) The cells were treated as in (C) except being lysed 24 h post-infection, and the levels of phosphorylated STAT1, p38, ERK (p-STAT1, p-p38, p-ERK), total STAT1, p38, ERK, and viral protein HA were assessed by western blot. (F) A quantitative analysis of the relative levels of the phosphorylated STAT1, p38, ERK (p-STAT1, p-p38, p-ERK) in (E). The data are representative of at least three independent experiments. n.s. no significance; *p < 0.05; **p < 0.01; ***p < 0.001.
as §1
as §2, with “The membranes were then blotted with monoclonal antibodies against GAPDH (1:1000, ZSGB-BIO), p38, phosphor-p38, ERK, phospho-ERK, STAT1, phosphor-STAT1 (1:1000; Cell Signaling Technology), STAT3, and phosphor-STAT3 (1:1000; Cell Signaling Technology), respectively.” left out

[7] = in vitro; settings: human
[8] = biological target: T1, JAK2 (Homo sapiens, UniProt O60674); test: Cell-free kinase activity assay, JAK2; type: biochemical
T1 construct: purchased KinaseProfiler (Eurofin, Brussels, Belgium)
T1 sequence (O60674 whole entry): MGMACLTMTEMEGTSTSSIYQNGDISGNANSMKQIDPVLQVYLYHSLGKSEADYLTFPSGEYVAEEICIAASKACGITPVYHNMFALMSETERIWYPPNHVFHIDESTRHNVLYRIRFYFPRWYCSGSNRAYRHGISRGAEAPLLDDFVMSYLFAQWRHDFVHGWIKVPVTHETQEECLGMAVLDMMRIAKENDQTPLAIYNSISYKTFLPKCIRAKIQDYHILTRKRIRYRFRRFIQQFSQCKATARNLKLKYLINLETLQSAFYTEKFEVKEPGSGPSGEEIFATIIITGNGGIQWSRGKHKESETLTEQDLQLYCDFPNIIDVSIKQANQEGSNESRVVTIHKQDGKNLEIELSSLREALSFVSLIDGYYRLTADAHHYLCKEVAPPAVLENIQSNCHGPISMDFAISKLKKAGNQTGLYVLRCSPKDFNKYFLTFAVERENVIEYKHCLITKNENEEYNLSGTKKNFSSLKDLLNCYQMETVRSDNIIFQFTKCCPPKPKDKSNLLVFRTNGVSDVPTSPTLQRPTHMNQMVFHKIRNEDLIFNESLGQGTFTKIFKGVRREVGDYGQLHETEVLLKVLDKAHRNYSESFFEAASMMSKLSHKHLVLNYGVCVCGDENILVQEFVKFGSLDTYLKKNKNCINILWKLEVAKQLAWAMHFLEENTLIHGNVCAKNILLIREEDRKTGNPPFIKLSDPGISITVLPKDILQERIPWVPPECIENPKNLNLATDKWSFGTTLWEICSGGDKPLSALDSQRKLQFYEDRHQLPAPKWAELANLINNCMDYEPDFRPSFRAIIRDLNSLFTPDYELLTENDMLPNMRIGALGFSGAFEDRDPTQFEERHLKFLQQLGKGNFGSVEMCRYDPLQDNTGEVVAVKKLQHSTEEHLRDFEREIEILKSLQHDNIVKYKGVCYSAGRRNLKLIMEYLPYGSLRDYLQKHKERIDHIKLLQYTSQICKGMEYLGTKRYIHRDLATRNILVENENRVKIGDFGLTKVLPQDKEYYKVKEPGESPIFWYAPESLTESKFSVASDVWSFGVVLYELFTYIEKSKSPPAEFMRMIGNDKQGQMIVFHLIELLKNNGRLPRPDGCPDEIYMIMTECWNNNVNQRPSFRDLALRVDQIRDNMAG

[9] = biological target: p38 (Homo sapiens, UniProt Q16539); test: Cell-free kinase activity assay, p38; type: biochemical
Chain of p38 (Q16539 whole entry): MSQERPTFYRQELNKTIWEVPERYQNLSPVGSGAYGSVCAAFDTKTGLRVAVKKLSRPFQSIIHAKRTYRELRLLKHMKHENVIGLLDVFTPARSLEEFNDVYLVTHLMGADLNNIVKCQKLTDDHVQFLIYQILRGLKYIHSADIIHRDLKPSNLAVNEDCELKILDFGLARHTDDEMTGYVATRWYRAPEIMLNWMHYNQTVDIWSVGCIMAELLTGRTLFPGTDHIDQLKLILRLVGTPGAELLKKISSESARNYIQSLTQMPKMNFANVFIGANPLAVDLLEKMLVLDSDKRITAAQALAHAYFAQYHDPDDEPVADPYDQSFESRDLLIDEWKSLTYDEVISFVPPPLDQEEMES

[10] = test system: IL-8 production in influenza virus-infected U937 cells (H3N2); test: cells; type: cell-based, Human
[11] = test system: IP-10 production in influenza virus-infected U937 cells (H3N2); test: cells; type: cell-based, Human
[12] = test system: MCP-1 production in influenza virus-infected U937 cells (H3N2); test: cells; type: cell-based, Human
[13] = test system: IL-8 production in influenza virus-infected U937 cells (H7N8); test: cells; type: cell-based, Human
[14] = test system: IP-10 production in influenza virus-infected U937 cells (H7N8); test: cells; type: cell-based, Human
[15] = test system: MCP-1 production in influenza virus-infected U937 cells (H7N8); test: cells; type: cell-based, Human
[16] = test system: U937 cells
[17] = test system: STAT3 phosphorylation (p-STAT3); test: Western blot of phosphorylated STAT3 in influenza-infected U937 cells; type: cell-based, Human; settings: 1 μM ponatinib, 24 h
Procedure: Figure 3 JAK is essential for regulating the production of pro-inflammatory cytokines induced by influenza infection in U937 cells. Inhibition rates on IL-8 (A), IP-10 (B), and MCP-1 (C) by each compound in the PTK group are categorized based on targets. […] The cells were then lysed after 24 h incubation at 37°C, and the levels of phosphorylated STAT1 (p-STAT1), total STAT1, phosphorylated STAT3 (p-STAT3), and total STAT3 were assessed by western blot.
as §2

[18] = test system: influenza virus infection; parameters: method as in Florence et al., 2018; Chen et al., 2019; settings: without compromising viral titers; ref Florence et al., 2018; Chen et al., 2019; cited from earlier work
[19] = biological target: JAK1 (Homo sapiens, UniProt P23458); test: Cell-free kinase activity assay, JAK1; settings: cell-free kinase assay
Chain of JAK1 (P23458 whole entry): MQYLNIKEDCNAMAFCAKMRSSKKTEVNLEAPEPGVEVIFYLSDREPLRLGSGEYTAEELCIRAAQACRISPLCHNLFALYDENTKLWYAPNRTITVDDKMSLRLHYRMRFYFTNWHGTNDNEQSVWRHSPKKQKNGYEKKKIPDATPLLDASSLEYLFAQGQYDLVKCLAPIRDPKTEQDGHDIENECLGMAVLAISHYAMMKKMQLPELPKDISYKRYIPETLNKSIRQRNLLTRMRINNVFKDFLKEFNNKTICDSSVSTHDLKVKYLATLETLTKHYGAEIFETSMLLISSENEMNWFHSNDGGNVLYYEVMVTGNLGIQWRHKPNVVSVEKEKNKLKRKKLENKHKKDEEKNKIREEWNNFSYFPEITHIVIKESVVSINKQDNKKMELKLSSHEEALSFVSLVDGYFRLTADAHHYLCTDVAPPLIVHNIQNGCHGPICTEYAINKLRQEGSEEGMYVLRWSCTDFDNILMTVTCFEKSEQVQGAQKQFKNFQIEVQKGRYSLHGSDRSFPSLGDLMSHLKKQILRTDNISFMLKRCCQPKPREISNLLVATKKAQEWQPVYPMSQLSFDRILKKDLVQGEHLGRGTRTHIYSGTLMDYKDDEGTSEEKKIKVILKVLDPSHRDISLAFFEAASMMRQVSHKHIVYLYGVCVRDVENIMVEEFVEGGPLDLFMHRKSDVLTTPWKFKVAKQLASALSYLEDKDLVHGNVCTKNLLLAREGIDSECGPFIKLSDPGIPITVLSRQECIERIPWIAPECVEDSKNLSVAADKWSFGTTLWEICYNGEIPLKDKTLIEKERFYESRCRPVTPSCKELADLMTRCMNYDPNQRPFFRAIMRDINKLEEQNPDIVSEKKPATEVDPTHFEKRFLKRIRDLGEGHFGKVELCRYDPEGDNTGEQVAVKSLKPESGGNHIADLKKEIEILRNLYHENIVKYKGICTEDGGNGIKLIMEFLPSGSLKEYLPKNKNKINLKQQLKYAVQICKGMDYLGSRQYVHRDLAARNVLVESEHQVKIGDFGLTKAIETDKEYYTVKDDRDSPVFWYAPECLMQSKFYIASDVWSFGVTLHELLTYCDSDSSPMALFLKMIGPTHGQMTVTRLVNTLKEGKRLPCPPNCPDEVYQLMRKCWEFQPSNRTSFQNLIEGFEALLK

[20] = Homo sapiens, U-937, secondary screen, Supplemental Table 1
[21] = secondary screen, Supplemental Table 1

O=C(NOC[C@H](O)CO)c1ccc(F)c(F)c1Nc1ccc(I)cc1F [PD0325901]
secretion of IL-8 [1]: inhibited | IC50 ([1]; Homo sapiens, U-937): < 20 nM | EC50 [1, 20]: < 5 nM | EC50 [2, 20]: 690 nM | secretion of IP-10 ([2]; at high concentrations, 48 h post-infection): inhibit | EC50 [3, 20]: 100 nM | IC50 ([3]; Homo sapiens, U-937): < 20 nM | secretion of MCP-1 ([3]; different concentrations of PD0325901, 48 h post-infection): inhibited | phosphorylation of p38 [4]: suppress | IC50 [4]: 10 nM | phosphorylation of STAT1 proteins [5]: inhibit | phosphorylation level of ERK [6]: decreased | CC50 [7]: > 100000 nM

CCS(=O)(=O)N1CC(CC#N)(n2cc(-c3ncnc4[nH]ccc34)cn2)C1 [Baricitinib]
JAK2 activity [8]: inhibited | p38 kinase activity in vitro ([9]; cell-free): failed to inhibit | IC50 ([9]; p38 kinases in vitro): > 1000 nM | phosphorylation of p38 [4]: suppress | CC50 at 48 h [7]: 5380 nM | CC50 ([7]; CC50): > 100000 nM

COc1cc(Nc2ncc(F)c(Nc3ccc4c(n3)NC(=O)C(C)(C)O4)n2)cc(OC)c1OC [R406]
EC50 [1]: 130 nM | EC50 [1, 21]: 820 nM | EC50 ([2]; U937 cells infected with H1N1): 431 nM | EC50 [2, 21]: 3500 nM | EC50 ([3]; U937 cells infected with H1N1): 240 nM | EC50 [3, 21]: 270 nM | EC50 [10]: 690 nM | EC50 [11]: 5 nM | EC50 [12]: 62 nM | EC50 ([13]; read-out: EC50 IL-8): 88 nM | EC50 ([14]; read-out: EC50 IP-10): 90 nM | EC50 ([15]; read-out: EC50 MCP-1): 35 nM | CC50 [16]: > 100000 nM | CC50 ([16]; U937 cells, Table 1 section H1N1): > 100000 nM | CC50 ([16]; U937 cells, Table 1 section H3N2): > 100000 nM | CC50 [16, 21]: > 100000 nM

Cc1ccc(C(=O)Nc2ccc(CN3CCN(C)CC3)c(C(F)(F)F)c2)cc1C#Cc1cnc2cccnn12 [Ponatinib]
IC50 ([1]; Homo sapiens, U-937): 300 nM | EC50 [1, 20]: < 5 nM | EC50 ([1]; Homo sapiens, U-937): 294 nM | EC50 [2, 20]: 60 nM | EC50 ([2]; Homo sapiens, U-937): 270 nM | IC50 ([2]; Homo sapiens, U-937, read-out: IC50 IP-10): 250 nM | EC50 [3, 20]: < 5 nM | EC50 ([3]; Homo sapiens, U-937): 385 nM | IC50 ([3]; Homo sapiens, U-937): 400 nM | EC50 ([10]; Homo sapiens, U-937): 714 nM | EC50 ([11]; Homo sapiens, U-937): 59 nM | EC50 ([12]; Homo sapiens, U-937): 625 nM | EC50 ([13]; Homo sapiens, U-937, read-out: EC50 IL-8): 833 nM | EC50 ([14]; Homo sapiens, U-937, read-out: EC50 IP-10): 833 nM | EC50 ([15]; Homo sapiens, U-937, read-out: EC50 MCP-1): 345 nM | JAK2 activity ([8]; cell-free kinase assay): weaker effect | IC50 [4]: 180 nM | STAT1 phosphorylation levels [5]: significantly reduced | phosphorylation level of ERK [6]: promoted | STAT3 phosphorylation [17]: limited inhibition | maximum non-toxic concentration ([16]; human): 1 µM | protection of mice from lethal influenza infection [18]: protecting mice from lethal influenza infection | JAK1 activity [19]: directly inhibit
